Data taken from the supplement of paper PMC10290057.
Structures can show the parent of a compound that is named as a salt.

Assays:
HCT116 [1] = assay: efficacy (fitted maximal change in viability relative to DMSO control); higher = less cytotoxic (negative = loss of viability); settings: 48 h
HCT116 [2] = assay: AC50 cell viability (CellTiter-Glo); higher = less potent; settings: 48 h
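Throughout, for AC50 cell viability (CellTiter-Glo): HCT116 colorectal carcinoma cells screened at five concentrations per compound, luminescent viability scaled between DMSO wells and empty wells on each plate, curves fitted per compound.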
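Throughout, for efficacy (fitted maximal change in viability relative to DMSO control): Luminescence-based viability readout, five doses per compound, normalized against on-plate DMSO and empty-well controls, followed by dose-response curve fitting for every drug.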

SMILES	efficacy (HCT116 [1]) [%]	AC50 cell viability (HCT116 [2]) [nM]
CN(C)C1=CC=C(C=C1)C(C2=CC=C(C=C2)N(C)C)=C/3\C=C/C(/C=C3)=[N+](C)C [Methylrosaniline chloride]	-84.9	833
COC(=O)/C=C/C(=O)N(O)CCCCNCc1ccc(COC(=O)Nc2cccc3ccccc23)cc1 [Methylstat]	-84.5	20900
CC[C@H](C)C(=O)O[C@H]1CC\C=C2\C=C/[C@H](C)[C@H](CC[C@@H]3C[C@@H](O)CC(=O)O3)[C@@H]12 [Mevastatin]	-58.3	14800
Clc1ccc(COC(Cn2ccnc2)c2ccc(Cl)cc2Cl)c(Cl)c1 (configuration not stated) [Miconazole nitrate]	-97.9	20900
CO[C@@H]1[C@H](N(C)C(=O)c2ccccc2)C[C@H]2O[C@]1(C)n1c3ccccc3c3c4c(c5c6ccccc6n2c5c31)C(=O)NC4 [Midostaurin]	-62.7	1480
CC1(C)CCC2(CC1)N[C@@H](C(=O)N[C@@H]1CC[C@@H](C(N)=O)OC1)[C@H](c1ccnc(Cl)c1F)[C@]21C(=O)Nc2cc(Cl)ccc21 [Milademetan]	-129	4020
CNC(=O)c1nn(C)c2c1C(C)(C)Cc1cnc(Nc3ccc(N4CCN(C)CC4)cc3)nc1-2 [Milciclib]	-63.4	525
Nc1ncccc1-c1nc2ccc(-c3ccccc3)nc2n1-c1ccc(C2(N)CCC2)cc1 [Miransertib]	-126	14800
O=C1c2c(O)ccc(O)c2C(=O)c2c(NCCNCCO)ccc(NCCNCCO)c21 [Mitoxantrone]	-91.4	1180
CC[S+]([O-])(=O)NC1=CC(=C(OC2=C(F)C=C(F)C=C2)C=C1)\C3=C\N(C)C(=O)C4=C3C=C[NH]4 [Mivebresib (ABBV-075)]	-97.5	52.5
Nc1ccccc1NC(=O)c1ccc(CNc2nccc(-c3cccnc3)n2)cc1 [Mocetinostat]	-73.2	934
NC/1=N/C(=O)C/2=C(/NCC3CN(CN23)C4=CC=C(C=C4)C(=O)N[C@@H](CCC(O)=O)C(O)=O)N1 (some centres not stated) [Modufolin]	-92	8330
N#CCNC(=O)c1ccc(-c2ccnc(Nc3ccc(N4CCOCC4)cc3)n2)cc1 [Momelotinib]	-74.3	3720
C[C@@H]1C[C@H]2[C@@H]3CC\C4=C\C(=O)\C=C/[C@]4(C)[C@@]3(Cl)[C@@H](O)C[C@]2(C)[C@@]1(OC(=O)C5=CC=CO5)C(=O)CCl [Mometasone furoate]	-78.7	20900
CC[C@@]1([C@@H]2O[C@@H]([C@H]3O[C@@](O)(CO)[C@H](C)C[C@@H]3C)C[C@@H]2C)CC[C@H]([C@]2(C)CC[C@]3(C[C@H](O)[C@@H](C)[C@@H]([C@@H](C)[C@@H](OC)[C@H](C)C(=O)[O-])O3)O2)O1 [Monensin sodium salt]	-47.4	456
Oc1ccc(OCc2ccccc2)cc1 [Monobenzone]	-47.7	18600
CCCN(CCC)C(=O)C\1=C\C2=CC=C(C=C2\N=C(N)/C1)C3=CC=C(C=C3)C(=O)N4CCCC4 [Motolimod]	-45.8	18600
FC(F)(F)c1ccc(/C=C/c2nc(COc3ccc(CCCCn4ccnn4)cc3)co2)cc1 [Mubritinib]	-38.5	20.9
COc1c(C)c2c(c(O)c1C/C=C(\C)CCC(=O)OCCN1CCOCC1)C(=O)OC2 [Mycophenolate mofetil]	-80.7	2630
COc1c(C)c2c(c(O)c1C/C=C(\C)CCC(=O)O)C(=O)OC2 [Mycophenolic acid]	-82	2090
CC(C)(O)C[S+](=O)([O-])Nc1ccc2c(c1)CCN(C(=O)COc1cccnc1)C2 [NAMPT-IN-1]	-92.6	46.8
